Values of other authors as cited in patent publication US9005898B2, “Method for controlling hair growth, method for selecting or evaluating hair growth control agent, and hair growth suppression agent” (Kao Corporation, priority 2010, dated 2015).

Test system: human hair follicle
Conditions: in a dose-dependent manner; Patent Document 7

Structure (SMILES): O=CN1CC/C(=C\c2ccc3c(c2)OCO3)C1=O [KNK437]
- growth of the human hair follicle: reduced
